Starred links: 1 amine or outer side, 2 acyl side, 3 side chain; linkers in the order of their positions; H or OH if unused. Positions of bridges follow the written chain, without caps; N, C: chain ends. Non-standard residues stand in square brackets, D forms with d. Residues, ends and D or L forms follow the SMILES beside them. *: point of attachment. hPhe(3,5-F2-4-CF3) = N[C@@H](CCc1cc(F)c(C(F)(F)F)c(F)c1)C(=O)O; hPhe(3-Cl-4-CF3) = N[C@@H](CCc1ccc(C(F)(F)F)c(Cl)c1)C(=O)O; Thiomorpholino(1,1-dioxo) = O=S1(=O)CCN(*)CC1; NMeAbu(4,4,4-F3) = CN[C@@H](CC(F)(F)F)C(=O)O; NMePhe(4-Cl) = CN[C@@H](Cc1ccc(Cl)cc1)C(=O)O; X59 = O=C([C@H](Cc1cc(I)ccc1Cl)N[*:1])[*:2]; NMePhe(4-F) = CN[C@@H](Cc1ccc(F)cc1)C(=O)O; X42 = Cc1ccc(I)cc1C[C@H](N[*:1])C(=O)[*:2]; NMeGly(cPent) = CN[C@H](C(=O)O)C1CCCC1; Phe(3-I) = N[C@@H](Cc1cccc(I)c1)C(=O)O; Pro(4,4-F2) = O=C(O)[C@@H]1CC(F)(F)CN1; NMeY = CN[C@@H](Cc1ccc(O)cc1)C(=O)O; NMeCha = CN[C@@H](CC1CCCCC1)C(=O)O; NMeChg = CN[C@H](C(=O)O)C1CCCCC1; NMeD = CN[C@@H](CC(=O)O)C(=O)O; NMeL = CN[C@@H](CC(C)C)C(=O)O; Chg = N[C@H](C(=O)O)C1CCCCC1; NMeV = CN[C@H](C(=O)O)C(C)C; NMeAbu = CC[C@H](NC)C(=O)O; NMeA = CN[C@@H](C)C(=O)O; NMeAib = CNC(C)(C)C(=O)O; Nle = CCCC[C@H](N)C(=O)O; Piperidide = C1CCN(*)CC1; Pra = C#CC[C@H](N)C(=O)O; Pyrrolidide = C1CCN(*)C1; Ac5c = NC1(C(=O)O)CCCC1; Aze = O=C(O)[C@@H]1CCN1; Sar = CNCC(=O)O
What follows are molecules tested against T1, Kras and SOS1 (biotin-tagged human Kras loaded with GDP, His-tagged human SOS1) (Homo sapiens, UniProt P01116, G12D) (assay: Protein-protein interaction inhibition between Kras and SOS1 (KrasGl2D-SOS PPI) using AlphaScreen). Settings: AlphaScreen; biotin-tagged human Kras loaded with GDP, His-tagged human SOS1; read-out: KRAS G12D-SOS PPI IC50.
T1 construct: made in house; host or cells: E. coli (stated for Kras only)
Type: binding
Summary of the method: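 AlphaScreen format: Ni donor beads capture His-SOS1, streptavidin acceptor beads capture biotinylated Kras (E. coli-expressed, GDP-loaded post-purification). Excite 680 nm, read 520-620 nm.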

T1 sequence (P01116 1-188 isoform P01116-2 G12D): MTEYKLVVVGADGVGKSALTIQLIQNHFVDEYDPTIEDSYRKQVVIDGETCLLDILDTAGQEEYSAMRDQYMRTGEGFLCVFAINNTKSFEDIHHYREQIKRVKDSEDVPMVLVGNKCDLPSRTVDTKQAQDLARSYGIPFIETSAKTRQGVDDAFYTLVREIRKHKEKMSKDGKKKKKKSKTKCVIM

Point of comparison: `CC[C@H](C)[C@@H]1NC(=O)[C@H](CC(C)C)N(C)C(=O)C[C@@H](C(=O)N2CCCCC2)N(C)C(=O)[C@H](C2CCCCC2)NC(=O)C2(CCCC2)NC(=O)[C@@H]2CCCN2C(=O)[C@H](CCc2ccc(C(F)(F)F)c(Cl)c2)NC(=O)CN(C)C(=O)[C@H](CC2CCCCC2)N(C)C(=O)CN(C)C(=O)CN(C)C1=O` [Compound 1354] ([NMeL]I[Sar][Sar][NMeCha][Sar][hPhe(3-Cl-4-CF3)]P[Ac5c][Chg][NMeD]-Piperidide; lactam N-11), IC50 7.7 nM. Against it:
- C#CC[C@@H]1NC(=O)[C@H](Cc2cccc(I)c2)NC(=O)CN(C)C(=O)[C@H](Cc2ccc(F)cc2)N(C)C(=O)[C@@H]2CCN2C(=O)CN(C)C(=O)[C@H]([C@@H](C)CC)NC(=O)[C@H](CC(C)C)N(C)C(=O)C[C@@H](C(=O)N2CCCCC2)N(C)C(=O)[C@H](CC(C)C)NC(=O)C(C)(C)N(C)C1=O [Compound 1344] ([NMeL]I[Sar][Aze][NMePhe(4-F)][Sar][Phe(3-I)][Pra][NMeAib]L[NMeD]-Piperidide; lactam N-11) — 25-fold higher, 190 nM
- CC[C@H](C)[C@@H]1NC(=O)[C@H](CC(C)C)N(C)C(=O)C[C@@H](C(=O)N2CCCCC2)N(C)C(=O)[C@H](C2CCCCC2)N(C)C(=O)C2(CCCC2)NC(=O)[C@@H]2CCCN2C(=O)[C@H](CCc2ccc(C(F)(F)F)c(Cl)c2)NC(=O)CN(C)C(=O)[C@H](CC2CCCCC2)N(C)C(=O)CN(C)C(=O)[C@H](C)N(C)C1=O [Compound 1345] ([NMeL]I[NMeA][Sar][NMeCha][Sar][hPhe(3-Cl-4-CF3)]P[Ac5c][NMeChg][NMeD]-Piperidide; lactam N-11) — 5.2-fold higher, 40 nM
- CC[C@H](C)[C@@H]1NC(=O)[C@H](CC(C)C)N(C)C(=O)C[C@@H](C(=O)N(C)C)N(C)C(=O)[C@H](C2CCCC2)N(C)C(=O)C2(CCCC2)NC(=O)[C@@H]2CC(F)(F)CN2C(=O)[C@H](CCc2cc(F)c(C(F)(F)F)c(F)c2)NC(=O)CN(C)C(=O)[C@H](CC2CCCCC2)N(C)C(=O)[C@@H]2CCN2C(=O)[C@H](C)N(C)C1=O [Compound 1346] ([NMeL]I[NMeA][Aze][NMeCha][Sar][hPhe(3,5-F2-4-CF3)][Pro(4,4-F2)][Ac5c][NMeGly(cPent)][NMeD]-NMe2; lactam N-11) — 13-fold lower, 0.6 nM
- CC[C@H](C)[C@@H]1NC(=O)[C@H](CC(C)C)N(C)C(=O)C[C@@H](C(=O)N2CCS(=O)(=O)CC2)NC(=O)[C@H](C(C)C)N(C)C(=O)C2(CCCC2)NC(=O)[C@@H]2CCCN2C(=O)[C@H](CCc2ccc(C(F)(F)F)c(Cl)c2)NC(=O)CN(C)C(=O)[C@H](CC2CCCCC2)N(C)C(=O)[C@@H]2CCN2C(=O)[C@H](C)N(C)C1=O [Compound 1349] ([NMeL]I[NMeA][Aze][NMeCha][Sar][hPhe(3-Cl-4-CF3)]P[Ac5c][NMeV]D-{Thiomorpholino(1,1-dioxo)}; lactam N-11) — 19-fold higher, 150 nM
- C#CC[C@@H]1NC(=O)[C@H](Cc2cccc(I)c2)NC(=O)CN(C)C(=O)[C@H](Cc2ccc(OC)cc2)N(C)C(=O)[C@@H]2CCN2C(=O)[C@H](C)N(C)C(=O)[C@H]([C@@H](C)CC)NC(=O)[C@H](CC(C)C)N(C)C(=O)C[C@@H](C(=O)N2CCCCC2)N(C)C(=O)[C@H](CC(C)C)NC(=O)C(C)(C)N(C)C1=O [Compound 1350] ([NMeL]I[NMeA][Aze][NMeY](Me)[Sar][Phe(3-I)][Pra][NMeAib]L[NMeD]-Piperidide; lactam N-11) — 2.2-fold higher, 17 nM
- CCCC[C@@H]1NC(=O)[C@H](Cc2cc(I)ccc2Cl)NC(=O)CN(C)C(=O)[C@H](Cc2ccc(Cl)cc2)N(C)C(=O)CN(C)C(=O)CN(C)C(=O)[C@H]([C@@H](C)CC)NC(=O)[C@H](CC(C)C)N(C)C(=O)C[C@@H](C(=O)N2CCCCC2)N(C)C(=O)[C@H](CC(C)C)NC(=O)C(C)(C)N(C)C1=O [Compound 1352] ([NMeL]I[Sar][Sar][NMePhe(4-Cl)][Sar][X59][Nle][NMeAib]L[NMeD]-Piperidide; lactam N-11) — 14-fold higher, 110 nM
- CC[C@H](C)[C@@H]1NC(=O)[C@H](CC(F)(F)F)N(C)C(=O)C[C@@H](C(=O)N2CCCC2)N(C)C(=O)[C@H](C2CCCCC2)N(C)C(=O)C2(CCCC2)NC(=O)[C@@H]2CC(F)(F)CN2C(=O)[C@H](CCc2ccc(C(F)(F)F)c(Cl)c2)NC(=O)CN(C)C(=O)[C@H](CC2CCCCC2)N(C)C(=O)CN(C)C(=O)CN(C)C1=O [Compound 1357] ([NMeAbu(4,4,4-F3)]I[Sar][Sar][NMeCha][Sar][hPhe(3-Cl-4-CF3)][Pro(4,4-F2)][Ac5c][NMeChg][NMeD]-Pyrrolidide; lactam N-11) — 15-fold lower, 0.52 nM
- CCCC[C@@H]1NC(=O)[C@H](Cc2cc(I)ccc2C)NC(=O)CN(C)C(=O)[C@H](Cc2ccc(OC)cc2)N(C)C(=O)[C@@H]2CCN2C(=O)[C@H](C)N(C)C(=O)[C@H]([C@@H](C)CC)NC(=O)[C@H](CC)N(C)C(=O)C[C@@H](C(=O)N2CCCCC2)N(C)C(=O)[C@H](CC(C)C)NC(=O)C(C)(C)N(C)C1=O [Compound 1358] ([NMeAbu]I[NMeA][Aze][NMeY](Me)[Sar][X42][Nle][NMeAib]L[NMeD]-Piperidide; lactam N-11) — 2.5-fold higher, 19 nM
